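The compound was tested at five concentrations on cells cultured in 96-well plates, with a 48-hour exposure period. The concentration for 50% growth inhibition is given as GI50. TGI: concentration producing complete growth inhibition.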
Columns and labels:
Assay in all cases: NCI-60 cell line screen, 48 h
ACHN renal = tested on: ACHN renal
SK-OV-3 ovarian = tested on: SK-OV-3 ovarian
MOLT-4 leukemia = tested on: MOLT-4 leukemia
IGROV1 ovarian = tested on: IGROV1 ovarian
MDA-MB-231 breast = tested on: MDA-MB-231 breast
MDA-MB-435 = tested on: MDA-MB-435
M14 melanoma = tested on: M14 melanoma
EKVX NSCLC = tested on: EKVX NSCLC
HOP-62 NSCLC = tested on: HOP-62 NSCLC
BT-549 breast = tested on: BT-549 breast
CCRF-CEM leukemia = tested on: CCRF-CEM leukemia
NCI-H23 lung = tested on: NCI-H23 lung
SR leukemia = tested on: SR leukemia
HT29 colon = tested on: HT29 colon
SK-MEL-28 melanoma = tested on: SK-MEL-28 melanoma
UACC-62 melanoma = tested on: UACC-62 melanoma
UACC-257 melanoma = tested on: UACC-257 melanoma
UO-31 renal = tested on: UO-31 renal
786-0 renal = tested on: 786-0 renal
HL-60(TB) leukemia = tested on: HL-60(TB) leukemia
NCI-H226 lung = tested on: NCI-H226 lung
SNB-75 CNS = tested on: SNB-75 CNS
SK-MEL-5 melanoma = tested on: SK-MEL-5 melanoma
SW-620 colon = tested on: SW-620 colon
COLO 205 colon = tested on: COLO 205 colon
DU-145 prostate = tested on: DU-145 prostate
OVCAR-3 ovarian = tested on: OVCAR-3 ovarian
SF-268 CNS = tested on: SF-268 CNS
PC-3 prostate = tested on: PC-3 prostate
A549 NSCLC = tested on: A549 NSCLC
HCC-2998 colon = tested on: HCC-2998 colon
NCI-H522 lung = tested on: NCI-H522 lung
OVCAR-8 ovarian = tested on: OVCAR-8 ovarian
RXF 393 renal = tested on: RXF 393 renal
HS 578T breast = tested on: HS 578T breast
TK-10 renal = tested on: TK-10 renal
MALME-3M melanoma = tested on: MALME-3M melanoma
NCI/ADR-RES ovarian = tested on: NCI/ADR-RES ovarian
A498 renal = tested on: A498 renal
U251 CNS = tested on: U251 CNS
SN12C renal = tested on: SN12C renal
MCF7 breast = tested on: MCF7 breast
HOP-92 NSCLC = tested on: HOP-92 NSCLC
LOX IMVI melanoma = tested on: LOX IMVI melanoma
HCT-116 colon = tested on: HCT-116 colon
SF-295 CNS = tested on: SF-295 CNS
RPMI-8226 leukemia = tested on: RPMI-8226 leukemia
SNB-19 CNS = tested on: SNB-19 CNS
T-47D breast = tested on: T-47D breast
SK-MEL-2 melanoma = tested on: SK-MEL-2 melanoma
SF-539 CNS = tested on: SF-539 CNS
KM12 colon = tested on: KM12 colon
NCI-H460 lung = tested on: NCI-H460 lung
CAKI-1 renal = tested on: CAKI-1 renal
OVCAR-5 ovarian = tested on: OVCAR-5 ovarian
K-562 leukemia = tested on: K-562 leukemia
HCT-15 colon = tested on: HCT-15 colon

Cn1cc(-c2nc3c(F)cc4[nH]ncc4c3c3c2CCCC3)c(C(F)(F)F)n1
GI50 (ACHN renal): 5.05 µM
TGI (ACHN renal): > 100 µM
GI50 (SK-OV-3 ovarian): 6.85 µM
TGI (SK-OV-3 ovarian): 38.5 µM
GI50 (MOLT-4 leukemia): 4.2 µM
TGI (MOLT-4 leukemia): 40.4 µM
GI50 (IGROV1 ovarian): 4.15 µM
TGI (IGROV1 ovarian): 28.7 µM
GI50 (MDA-MB-231 breast): 13.1 µM
TGI (MDA-MB-231 breast): > 100 µM
GI50 (MDA-MB-435): 5.36 µM
TGI (MDA-MB-435): > 100 µM
GI50 (M14 melanoma): 8.54 µM
TGI (M14 melanoma): 44.2 µM
GI50 (EKVX NSCLC): 9.47 µM
TGI (EKVX NSCLC): 36.6 µM
GI50 (HOP-62 NSCLC): 6.22 µM
TGI (HOP-62 NSCLC): 44 µM
GI50 (BT-549 breast): 2.62 µM
TGI (BT-549 breast): 15.4 µM
GI50 (CCRF-CEM leukemia): 4.66 µM
TGI (CCRF-CEM leukemia): > 100 µM
GI50 (NCI-H23 lung): 8.73 µM
TGI (NCI-H23 lung): > 100 µM
GI50 (SR leukemia): 5.25 µM
TGI (SR leukemia): > 100 µM
GI50 (HT29 colon): 9.05 µM
TGI (HT29 colon): > 100 µM
GI50 (SK-MEL-28 melanoma): 12.8 µM
TGI (SK-MEL-28 melanoma): 74.8 µM
GI50 (UACC-62 melanoma): 5.54 µM
TGI (UACC-62 melanoma): 28.3 µM
GI50 (UACC-257 melanoma): 25.9 µM
TGI (UACC-257 melanoma): > 100 µM
GI50 (UO-31 renal): 4.26 µM
TGI (UO-31 renal): 19.5 µM
GI50 (786-0 renal): 10.7 µM
TGI (786-0 renal): 27.7 µM
GI50 (HL-60(TB) leukemia): 5.5 µM
TGI (HL-60(TB) leukemia): 28.2 µM
GI50 (NCI-H226 lung): 22.7 µM
TGI (NCI-H226 lung): 67.2 µM
GI50 (SNB-75 CNS): 3.69 µM
TGI (SNB-75 CNS): 16.9 µM
GI50 (SK-MEL-5 melanoma): 9.12 µM
TGI (SK-MEL-5 melanoma): 22.9 µM
GI50 (SW-620 colon): 11.3 µM
TGI (SW-620 colon): 48.7 µM
GI50 (COLO 205 colon): 19.6 µM
TGI (COLO 205 colon): 57.1 µM
GI50 (DU-145 prostate): 10.9 µM
TGI (DU-145 prostate): 77.7 µM
GI50 (OVCAR-3 ovarian): 23.2 µM
TGI (OVCAR-3 ovarian): 75.8 µM
GI50 (SF-268 CNS): 12 µM
TGI (SF-268 CNS): 55.3 µM
GI50 (PC-3 prostate): 14.6 µM
TGI (PC-3 prostate): > 100 µM
GI50 (A549 NSCLC): 5.7 µM
TGI (A549 NSCLC): 59.4 µM
GI50 (HCC-2998 colon): 16.4 µM
TGI (HCC-2998 colon): 49.3 µM
GI50 (NCI-H522 lung): 3.45 µM
TGI (NCI-H522 lung): 19.6 µM
GI50 (OVCAR-8 ovarian): 15.3 µM
TGI (OVCAR-8 ovarian): > 100 µM
GI50 (RXF 393 renal): 2.67 µM
TGI (RXF 393 renal): 12.2 µM
GI50 (HS 578T breast): 4.59 µM
TGI (HS 578T breast): 27.2 µM
GI50 (TK-10 renal): 10.1 µM
TGI (TK-10 renal): 75 µM
GI50 (MALME-3M melanoma): 8.87 µM
TGI (MALME-3M melanoma): 34.2 µM
GI50 (NCI/ADR-RES ovarian): 15.8 µM
TGI (NCI/ADR-RES ovarian): > 100 µM
GI50 (A498 renal): 1.7 µM
TGI (A498 renal): 4.88 µM
GI50 (U251 CNS): 18.2 µM
TGI (U251 CNS): 56.9 µM
GI50 (SN12C renal): 8.25 µM
TGI (SN12C renal): 81.8 µM
GI50 (MCF7 breast): 5.38 µM
TGI (MCF7 breast): 45.4 µM
GI50 (HOP-92 NSCLC): 19.6 µM
TGI (HOP-92 NSCLC): > 100 µM
GI50 (LOX IMVI melanoma): 7.8 µM
TGI (LOX IMVI melanoma): 25 µM
GI50 (HCT-116 colon): 4.3 µM
TGI (HCT-116 colon): 22.1 µM
GI50 (SF-295 CNS): 9.57 µM
TGI (SF-295 CNS): 69.8 µM
GI50 (RPMI-8226 leukemia): 11.5 µM
TGI (RPMI-8226 leukemia): > 100 µM
GI50 (SNB-19 CNS): 26.8 µM
TGI (SNB-19 CNS): > 100 µM
GI50 (T-47D breast): 9.51 µM
TGI (T-47D breast): 76.9 µM
GI50 (SK-MEL-2 melanoma): 13 µM
TGI (SK-MEL-2 melanoma): 30.5 µM
GI50 (SF-539 CNS): 7.55 µM
TGI (SF-539 CNS): 22.8 µM
GI50 (KM12 colon): 2.85 µM
TGI (KM12 colon): > 100 µM
GI50 (NCI-H460 lung): 10.4 µM
TGI (NCI-H460 lung): 33.9 µM
GI50 (CAKI-1 renal): 3.33 µM
TGI (CAKI-1 renal): > 100 µM
GI50 (OVCAR-5 ovarian): 19.2 µM
TGI (OVCAR-5 ovarian): 86.6 µM
GI50 (K-562 leukemia): 8.25 µM
TGI (K-562 leukemia): > 100 µM
GI50 (HCT-15 colon): 14.2 µM
TGI (HCT-15 colon): > 100 µM
